Test [1] relates to differentiated L6-myotubes. Kind of test: Glucose uptake screen (Biological example 1 of WO 2019/053427). The test is classed as cell-based. As to conditions: compound at 10 μM, activity relative to isoproterenol at 10 μM, read-out: Biological example 1 of WO 2019/053427 (GU). The procedure, abridged: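 Uptake was read out as ^3H-2-deoxyglucose (50 nM, 10 min) radioactivity in NaOH lysates. Beforehand, overnight-starved, differentiated L6 myotubes received compound at 1×10^−5 M with ICI-118551 present for 1 h 40 min, followed by fresh agonist for a further 20 min in glucose-free medium.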

The subject of test [2] is differentiated L6-myotubes. Kind of test: cAMP production relative to isoprenaline (Biological example 2 of WO 2019/053427). The test is classed as cell-based. As to conditions: 0.25 h, compound at 10 μM, activity relative to isoproterenol at 10 μM. An outline of the steps:
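Values are cAMP levels relative to isoprenaline at equal concentration (final 1×10^−5 M for both). Stimulation lasted 15 min in differentiated L6 myotubes, using HBSS buffer (pH 7.4) containing 1 mM IBMX, 5 mM HEPES and 1% BSA.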

For the molecule `CC(C)(C[C@H]1CC[C@@H](N)CC1)NC[C@H](O)c1cccc(C#N)n1` [Compound 418, 6-[(S)-2-{1,1-dimethyl-2-[(1s,4R)-4-aminocyclohexyl]ethylamino}-1-hydroxyethyl]-2-pyridinecarbonitrile], the Emax at 10 µM in test [1] was 50 to 75%; in test [2] it was less than 25%.

Turning to `CC(C)(NC[C@H](O)c1cncc(F)c1)[C@H]1CC[C@H](OCC(=O)O)CC1` [Compound 419, [(1R,4r)-4-{1-[(R)-2-(5-fluoro-3-pyridyl)-2-hydroxyethylamino]-1-methylethyl}cyclohexyloxy]aetic acid], the Emax at 10 µM in test [1] is 50 to 75%; in test [2], less than 25%.

As for `CC(C)(C[C@H]1CC[C@H](NC(=O)OC(C)(C)C)CC1)NC[C@H](O)c1cccc(F)c1` [Compound 420], the values for the Emax at 10 µM in test [1] and in test [2] were 50 to 75% and 25 to 50%, respectively.

As for `CC(=O)N[C@H]1CC[C@@H](CC(C)(C)NC[C@H](O)c2cccc(C#N)n2)CC1` [Compound 421, N-[(1R,4s)-4-{2-[(S)-2-(6-cyano-2-pyridyl)-2-hydroxyethylamino]-2-methylpropyl}cyclohexyl]acetamide], the Emax at 10 µM is more than 75% in test [1] and less than 25% in test [2].

As for `CC(C)(C[C@H]1CC[C@@H](NS(C)(=O)=O)CC1)NC[C@H](O)c1cccc(C#N)n1` [Compound 422, 6-[(S)-2-{1,1-dimethyl-2-[(1s,4R)-4-(mesylamino)cylcohexyl]ethylamino}-1-hydroxyethyl]-2-pyridinecarbonitrile], the Emax at 10 µM in test [1] was 50 to 75%; in test [2] it was less than 25%.

Take `CC(=O)N[C@H]1CC[C@@H](CC(C)(C)NC[C@@H](O)c2cccc(C#N)n2)CC1` [Compound 423, N-[(1S,4s)-4-{2-[(R)-2-(6-cyano-2-pyridyl)-2-hydroxyethylamino]-2-methylpropyl}cyclohexyl]acetamide]: the Emax at 10 µM in test [1] and in test [2] was less than 25% in each case.

With `CC(C)(C[C@H]1CC[C@@H](NS(C)(=O)=O)CC1)NC[C@@H](O)c1cccc(C#N)n1` [Compound 424, 6-[(R)-2-{1,1-dimethyl-2-[(1s,4S)-4-(mesylamino)cyclohexyl]ethylamino}-1-hydroxyethyl]-2-pyridinecarbonitrile], the Emax at 10 µM in test [1] is 25 to 50%; in test [2], less than 25%.

For the molecule `CC(=O)N[C@H]1CC[C@H](CC(C)(C)NC[C@H](O)c2cccc(C#N)n2)CC1` [Compound 425, N-[(1S,4r)-4-{2-[(S)-2-(6-cyano-2-pyridyl)-2-hydroxyethylamino]-2-methylpropyl}cyclohexyl]acetamide], the Emax at 10 µM in test [1] was more than 75%; in test [2], 25 to 50%.

For `CC(C)(C[C@H]1CC[C@H](NS(C)(=O)=O)CC1)NC[C@H](O)c1cccc(C#N)n1` [Compound 426, 6-[(S)-2-{1,1-dimethyl-2-[(1r,4S)-4-(mesylamino)cyclohexyl]ethylamino}-1-hydroxyethyl]-2-pyridinecarbonitrile], the Emax at 10 µM in test [1] is more than 75%; in test [2], less than 25%.

For `CC(=O)N[C@H]1CC[C@H](CC(C)(C)NC[C@@H](O)c2cccc(C#N)n2)CC1` [Compound 427, N-[(1R,4r)-4-{2-[(R)-2-(6-cyano-2-pyridyl)-2-hydroxyethylamino]-2-methylpropyl}cyclohexyl]acetamide], the Emax at 10 µM in test [1] and in test [2] was less than 25% in each case.

Turning to `CC(C)(C[C@H]1CC[C@H](NS(C)(=O)=O)CC1)NC[C@@H](O)c1cccc(C#N)n1` [Compound 428, 6-[(R)-2-{1,1-dimethyl-2-[(1r,4R)-4-(mesylamino)cyclohexyl]ethylamino}-1-hydroxyethyl]-2-pyridinecarobnitrile], the Emax at 10 µM in test [1] and in test [2] was less than 25% each time.

In the case of `CC(C)(C[C@H]1CC[C@H](NC(=O)C(C)(C)C)CC1)NC[C@H](O)c1cccc(F)c1` [Compound 429, N-[(1R,4r)-4-{2-[(R)-2-(m-fluorophenyl)-2-hdyroxyethylamino]-2-methylpropyl}cyclohexyl]2,2-dimethylpropionamide], the Emax at 10 µM in test [1] was more than 75%; in test [2], 25 to 50%.

In the case of `CN(C)C(=O)N[C@H]1CC[C@H](CC(C)(C)NC[C@H](O)c2cccc(F)c2)CC1` [Compound 430, (R)-2-{1,1-dimethyl-2-[(1r,4R)-4-(3,3-dimethylureido)cyclohexyl]ethylamino}-1-(m-fluorophenyl)-1-ethanol], the Emax at 10 µM is more than 75% in test [1] and 50 to 75% in test [2].

For the molecule `CC(C)(C[C@H]1CC[C@H](NC(=O)C2CCC2)CC1)NC[C@H](O)c1cccc(F)c1` [Compound 431, N-[(1R,4r)-4-{2-[(R)-2-(m-fluorophenyl)-2-hydroxyethylamino]-2-methylpropyl}cyclohexyl]cyclobutanecarboxamide], the figures for the Emax at 10 µM in test [1] and in test [2] were more than 75% and 50 to 75%, respectively.

Regarding `CC(C)(C[C@H]1CC[C@H](NC(=O)C2CC2)CC1)NC[C@H](O)c1cccc(F)c1` [Compound 432, N-[(1R,4r)-4-{2-[(R)-2-(m-fluorophenyl)-2-hydroxyethylamino]-2-methylpropyl}cyclohexyl]cyclopropanecarboxmaide], the Emax at 10 µM in test [1] and in test [2] was more than 75% each time.

Regarding `CC(C)(C[C@H]1CC[C@H](NC(=O)C(F)(F)F)CC1)NC[C@H](O)c1cccc(F)c1` [Compound 433, N-[(1R,4r)-4-{2-[(R)-2-(m-fluorophenyl)-2-hydroxyethylamino]-2-methylpropyl}cyclohexyl]trifluoroacetamide], the Emax at 10 µM in test [1] was more than 75%; in test [2], 25 to 50%.

In the case of `CC(=O)N[C@H]1CC[C@H](CC(C)(C)NC[C@H](O)c2cccnc2C)CC1` [Compound 434, N-[(1R,4r)-4-{2-[(R)-2-hydroxy-2-(2-methyl-3-pyridyl)ethylamino]-2-methylpropyl}cyclohexyl]acetamide], the Emax at 10 µM is more than 75% in test [1] and less than 25% in test [2].

Take `Cc1ncccc1[C@@H](O)CNC(C)(C)C[C@H]1CC[C@H](NS(C)(=O)=O)CC1` [Compound 435, (R)-2-{1,1-dimethyl-2-[(1r,4R)-4-(mesylamino)cyclohexyl]ethylamino}-1-(2-methyl-3-pyridyl)-1-ethanol]: the Emax at 10 µM in test [1] is 25 to 50%; in test [2] it was less than 25%.

On to `CC(=O)N[C@H]1CC[C@@H](CC(C)(C)NC[C@H](O)c2cccnc2C)CC1` [Compound 436, N-[(1S,4s)-4-{2-[(R)-2-hydroxy-2-(2-methyl-3-pyridyl)ethylamino]-2-methylpropyl}cyclohexyl]acetamide], for which the figures for the Emax at 10 µM in test [1] and in test [2] were 50 to 75% and less than 25%, respectively.

For the molecule `Cc1ncccc1[C@@H](O)CNC(C)(C)C[C@H]1CC[C@@H](NS(C)(=O)=O)CC1` [Compound 437, (R)-2-{1,1-dimethyl-2-[(1s,4S)-4-(mesylamino)cyclohexyl]ethylamino}-1-(2-methyl-3-pyridyl)-1-ethanol], the Emax at 10 µM in test [1] was 25 to 50%; in test [2], less than 25%.

As to `O[C@@H](c1cccc(F)c1)C12CCC(COCc3ccc(F)cc3)(CC1)N2` [Compound 438, (S)-(m-fluorophenyl)(4-{[(p-fluorophenyl)methoxy]methyl}-7-azabicyclo[2.2.1]hept-1-yl)methanol], the Emax at 10 µM in test [1] and in test [2] was less than 25% throughout.

On to `O[C@H](c1cccc(F)c1)C12CCC(COCc3ccc(F)cc3)(CC1)N2` [Compound 439, (R)-(m-fluorophenyl)(4-{[(p-fluorophenyl)methoxy]methyl}-7-azabicyclo[2.2.1]hept-1-yl)methanol], for which the Emax at 10 µM was more than 75% in test [1] and 25 to 50% in test [2].

Take `O[C@@H](c1cccc(F)c1)C12CCC(COc3ccc(Cl)cc3)(CC1)N2` [Compound 440, (S)-{4-[(p-chlorophenoxy)methyl]-7-azabicyclo[2.2.1]hept-1-yl}(m-fluorophenyl)methanol]: the Emax at 10 µM in test [1] was more than 75%; in test [2] it was less than 25%.

For the molecule `O[C@H](c1cccc(F)c1)C12CCC(COc3ccc(Cl)cc3)(CC1)N2` [Compound 441, (R)-{4-[(p-chlorophenoxy)methyl]-7-azabicyclo[2.2.1]hept-1-yl}(m-fluorophenyl)methanol], the values for the Emax at 10 µM in test [1] and in test [2] were more than 75% and less than 25%, respectively.

With `O[C@@H](c1cncc(F)c1)C12CCC(COCc3ccc(F)cc3)(CC1)N2` [Compound 442, (S)-(4-{[(p-fluorophenyl)methoxy]methyl}-7-azabicyclo[2.2.1]hept-1-yl)(5-fluoro-3-pyridyl)methanol], the Emax at 10 µM was 25 to 50% in test [1] and less than 25% in test [2].

Turning to `O[C@H](c1cncc(F)c1)C12CCC(COCc3ccc(F)cc3)(CC1)N2` [Compound 443, (R)-(4-{[(p-fluorophenyl)methoxy]methyl}-7-azabicyclo[2.2.1]hept-1-yl)(5-fluoro-3-pyridyl)methanol], the Emax at 10 µM in test [1] was more than 75%; in test [2], 25 to 50%.

In the case of `O[C@H](c1ccccc1F)C12CCC(CCc3cccnc3)(CC1)N2` [Compound 444, (R)-(o-fluorophenyl){4-[2-(3-pyridyl)ethyl]-7-azabicyclo[2.2.1]hept-1-yl}methanol], the results for the Emax at 10 µM in test [1] and in test [2] were more than 75% and 50 to 75%, respectively.

Turning to `O[C@@H](c1cccc(F)c1)C12CCC(CCc3cccnc3)(CC1)N2` [Compound 445, (S)-(m-fluorophenyl){4-[2-(3-pyridyl)ethyl]-7-azabicyclo[2.2.1]hept-1-yl}methanol], the Emax at 10 µM was more than 75% in test [1] and less than 25% in test [2].

Regarding `O[C@H](c1cccc(F)c1)C12CCC(CCc3cccnc3)(CC1)N2` [Compound 446, (R)-(m-fluorophenyl){4-[2-(3-pyridyl)ethyl]-7-azabicyclo[2.2.1]hept-1-yl}methanol], the Emax at 10 µM in test [1] was more than 75%; in test [2], 50 to 75%.

The record behind these values is US20260256751A1, “COMBINATION OF BETA-2-ADRENERGIC RECEPTOR AGONISTS AND GLP-1 RECEPTOR AGONISTS FOR USE IN TREATING HYPERGLYCAEMIA” (ATROGI AB, priority 2023, published 2026).
